Measured values from US20230172204A1 (BASF SE, priority 2020, published 2023).

Columns and labels:
[1] = test system: Phakopsora pachyrhizi (F129L); assay: Protective control of soybean rust on soybeans (PHAKPA P6); format: in vivo; details: for % PHAKPA (F129L) Disease level P6 at 4 ppm: protective P6, 4 ppm; for % PHAKPA (F129L) Disease level P6 at 4 ppm / % PHAKPA (F129L) Disease level P6 at 16 ppm: soybean rust F129L; for % PHAKPA (F129L) Disease level P6 at 16 ppm: protective P6, 16 ppm; for PHAKPA (F129L) Disease level (%) P6 at 16 ppm / PHAKPA (F129L) Disease level (%) P6 at 4 ppm: P6 protective, % diseased leaf area
[2] = test system: Phakopsora pachyrhizi (F129L); assay: Protective control of soybean rust on soybeans (PHAKPA P2); format: in vivo; details: for % PHAKPA (F129L) Disease level P2 at 4 ppm: protective P2, 4 ppm; for % PHAKPA (F129L) Disease level P2 at 4 ppm / % PHAKPA (F129L) Disease level P2 at 16 ppm: soybean rust F129L; for % PHAKPA (F129L) Disease level P2 at 16 ppm: protective P2, 16 ppm; for PHAKPA (F129L) Disease level (%) P2 at 4 ppm / PHAKPA (F129L) Disease level (%) P2 at 16 ppm: P2 protective, % diseased leaf area

Structure (SMILES)	% PHAKPA (F129L) Disease level P6 at 4 ppm [1] [%]	% PHAKPA (F129L) Disease level P6 at 16 ppm [1] [%]	% PHAKPA (F129L) Disease level P2 at 4 ppm [2] [%]	% PHAKPA (F129L) Disease level P2 at 16 ppm [2] [%]	PHAKPA (F129L) Disease level (%) P6 at 16 ppm [1] [%]	PHAKPA (F129L) Disease level (%) P2 at 4 ppm [2] [%]	PHAKPA (F129L) Disease level (%) P6 at 4 ppm [1] [%]	PHAKPA (F129L) Disease level (%) P2 at 16 ppm [2] [%]
CNC(=O)/C(=N/OC)c1cccc(Br)c1CO/N=C(\C)c1ccccc1 [compound 396]	4	0	3	0	–	–	–	–
CO/N=C(/C(=O)OC)c1cccc(C)c1CO/N=C(\C)c1c(C)cccc1C [compound 174]	80	70	100	100	–	–	–	–
CNC(=O)/C(=N/OC)c1cccc(C)c1CO/N=C(/c1cccc(C)c1)C1CC1 [drawing 975, reference compound]	–	–	–	–	67	67	–	–
CNC(=O)/C(=N/OC)c1cccc(C)c1CO/N=C(\CC1CC1)c1cccc(C(F)(F)F)c1 [compound 234]	53	15	53	18	–	–	–	–
C#Cc1cccc(/C(C)=N/OCc2c(C)cccc2/C(=N\OC)C(=O)OC)c1 [compound 53]	100	47	63	17	–	–	–	–
CO/N=C(/C(=O)OC)c1cccc(C)c1CO/N=C(\CC(F)(F)F)c1cccc(C(F)(F)F)c1 [compound 250]	90	80	90	90	–	–	–	–
CO/N=C(/C(=O)OC)c1cccc(C)c1CO/N=C(\C)c1cccc(C(F)F)c1 [compound 19]	87	1	87	0	–	–	–	–
CNC(=O)/C(=N/OC)c1ccccc1CO/N=C(\C)c1cc(Cl)cc(Cl)c1 [reference compound]	–	–	–	–	–	100	97	–
CNC(=O)/C(=N/OC)c1cccc(C)c1CO/N=C(/c1cccc(C(F)(F)F)c1)C(C)C [compound 207]	83	5	40	11	–	–	–	–
CNC(=O)/C(=N/OC)c1cccc(C)c1CO/N=C(\C)c1cccc(Br)c1 [Ex. 58]	4	0	2	0	–	0	4	–
CNC(=O)/C(=N/OC)c1cccc(C)c1CO/N=C(\C)c1ccc(Oc2ccc(Cl)cc2)cc1C(F)(F)F [compound 336]	50	17	63	20	–	–	–	–
CO/N=C(/C(=O)OC)c1cccc(C)c1CO/N=C(\C)c1c(F)cccc1Cl [compound 283]	87	22	83	30	–	–	–	–
CO/N=C(/C(=O)OC)c1cccc(C)c1CO/N=C(\C)c1cc(-c2ccccc2)cc(C(F)(F)F)c1 [compound 144]	92	90	87	80	–	–	–	–
CO/N=C(/C(=O)OC)c1cccc(C)c1CO/N=C(\C)c1ccc(C#N)cc1 [Ex. 155]	93	20	97	30	18	–	–	23
CO/C=C(/C(=O)OC)c1cccc(C)c1CO/N=C(\C)c1ccc(F)c(F)c1OC(F)(F)F [compound 450]	4	1	3	1	–	–	–	–
CNC(=O)/C(=N/OC)c1ccccc1CO/N=C(\C)c1ccc(Cl)c(Cl)c1 [reference compound]	–	–	–	–	–	43	77	–
CO/N=C(/C(=O)OC)c1cccc(C)c1CO/N=C(\C)c1c(C)cccc1F [compound 285]	90	35	87	50	–	–	–	–
CO/N=C(\C)COc1cccc(/C(C)=N/OCc2c(C)cccc2/C(=N\OC)C(=O)OC)c1 [compound 227]	100	57	100	47	–	–	–	–
CNC(=O)/C(=N/OC)c1cccc(C)c1CO/N=C(\C)c1ccccc1Br [Ex. 120]	90	8	43	4	15	–	–	6
CO/N=C(/C(=O)OC)c1cccc(C)c1CO/N=C(\C)c1cccc(C#N)c1 [Ex. 104]	19	11	22	15	28	–	–	37
C#Cc1cc(F)c(F)c(/C(C)=N/OCc2c(C)cccc2/C(=N\OC)C(=O)OC)c1 [compound 242]	87	20	87	10	–	–	–	–
CCc1cccc(/C(=N\OC)C(=O)NC)c1CO/N=C(\C)c1cccc(C(F)(F)F)c1 [compound 62]	60	3	43	0	–	–	–	–
